Assay [1] has as its target Induced myeloid leukemia cell differentiation protein Mcl-1 (Homo sapiens, UniProt Q07820). The format is functional.
The next assay addresses Cytochrome P450 2C19 (Homo sapiens, UniProt P33261). The assay is described as follows: Cytochrome panel assay with activity outcomes. Panel member name: p450-cyp2c19 Compounds with AC50 equal or less than 10 uM are considered active. To be noted: read-out: AC50. The format is functional.
Assay [2] concerns the target T1, Mannose-6-phosphate isomerase (Homo sapiens, UniProt P34949).
T1 sequence (P34949 whole entry): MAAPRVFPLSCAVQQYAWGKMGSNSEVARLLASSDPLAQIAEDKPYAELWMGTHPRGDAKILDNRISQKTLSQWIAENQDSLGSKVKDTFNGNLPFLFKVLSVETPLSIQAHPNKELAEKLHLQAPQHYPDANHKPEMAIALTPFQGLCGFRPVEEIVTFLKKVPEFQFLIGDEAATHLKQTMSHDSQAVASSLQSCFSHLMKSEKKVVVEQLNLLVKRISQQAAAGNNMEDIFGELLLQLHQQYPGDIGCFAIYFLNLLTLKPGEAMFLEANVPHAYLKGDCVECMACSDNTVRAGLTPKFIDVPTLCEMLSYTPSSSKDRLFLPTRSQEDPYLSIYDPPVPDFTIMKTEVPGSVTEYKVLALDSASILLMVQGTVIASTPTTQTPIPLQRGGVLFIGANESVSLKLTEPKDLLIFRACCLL
Description: human PMI inhibitors, high substrate, primary screen, biochemical, fluorescence intensity, high mannose 6-phosphate (AID 1220).

Another assay deals with T2, Estrogen receptor (Homo sapiens, UniProt P03372).
T2 sequence (P03372 whole entry): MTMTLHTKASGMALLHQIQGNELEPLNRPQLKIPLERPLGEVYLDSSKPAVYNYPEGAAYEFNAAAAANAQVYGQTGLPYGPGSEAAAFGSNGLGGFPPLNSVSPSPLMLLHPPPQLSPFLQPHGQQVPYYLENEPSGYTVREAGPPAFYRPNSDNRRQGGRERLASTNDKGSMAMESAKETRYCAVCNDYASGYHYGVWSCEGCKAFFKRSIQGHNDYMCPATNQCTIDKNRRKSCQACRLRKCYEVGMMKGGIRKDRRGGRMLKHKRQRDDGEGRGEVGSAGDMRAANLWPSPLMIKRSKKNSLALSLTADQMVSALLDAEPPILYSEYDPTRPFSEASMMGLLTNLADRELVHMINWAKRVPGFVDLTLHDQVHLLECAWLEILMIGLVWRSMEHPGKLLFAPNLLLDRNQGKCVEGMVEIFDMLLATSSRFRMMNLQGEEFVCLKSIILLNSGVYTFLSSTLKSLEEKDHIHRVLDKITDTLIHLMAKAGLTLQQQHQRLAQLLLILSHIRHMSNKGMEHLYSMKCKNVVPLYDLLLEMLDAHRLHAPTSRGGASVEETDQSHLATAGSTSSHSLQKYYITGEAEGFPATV

The nature of assay [3]: A Cell Based Secondary Assay To Explore Cytotoxicity of Compounds that Sensitize Mycobacterium Tuberculosis to Beta-Lactam Antibiotics. The format is functional.
The target in a further assay is T3, Coagulation factor XII (Homo sapiens, UniProt P00748).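 Also: activated factor XIIa alpha cleaving a fluorogenic AMC peptide substrate; inhibitor potency from loss of enzyme activity.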
T3 sequence (P00748 whole entry): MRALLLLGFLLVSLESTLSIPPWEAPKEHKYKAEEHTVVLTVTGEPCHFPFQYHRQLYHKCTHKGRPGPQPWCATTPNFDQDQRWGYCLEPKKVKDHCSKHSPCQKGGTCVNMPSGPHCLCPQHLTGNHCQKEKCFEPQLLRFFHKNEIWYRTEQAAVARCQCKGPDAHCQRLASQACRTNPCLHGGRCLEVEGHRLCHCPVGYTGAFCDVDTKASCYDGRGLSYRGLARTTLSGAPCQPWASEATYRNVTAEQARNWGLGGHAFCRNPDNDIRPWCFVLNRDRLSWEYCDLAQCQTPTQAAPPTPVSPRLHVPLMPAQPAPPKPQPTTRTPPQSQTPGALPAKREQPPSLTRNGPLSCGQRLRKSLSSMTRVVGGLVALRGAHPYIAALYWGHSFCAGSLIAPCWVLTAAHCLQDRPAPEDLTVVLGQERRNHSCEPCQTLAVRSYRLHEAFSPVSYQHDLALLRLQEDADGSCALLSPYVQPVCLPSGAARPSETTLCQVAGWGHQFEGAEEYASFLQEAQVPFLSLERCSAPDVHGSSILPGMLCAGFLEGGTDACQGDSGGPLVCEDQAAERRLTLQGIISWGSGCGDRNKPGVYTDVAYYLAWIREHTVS
The format is functional.

Assay [4] deals with T4, Ubiquitin-conjugating enzyme E2 N (Homo sapiens, UniProt P61088).
T4 sequence (P61088 whole entry): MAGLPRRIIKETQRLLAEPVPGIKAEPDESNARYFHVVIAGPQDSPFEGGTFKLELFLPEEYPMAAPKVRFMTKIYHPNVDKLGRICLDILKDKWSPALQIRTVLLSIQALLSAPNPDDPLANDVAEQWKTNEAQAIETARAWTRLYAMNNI
In kind it is functional.

A short description of assay [5]: cytotoxicity in HEK-293T cells, dose response, cytotoxicity control for TCR NF-kB inhibitor project, luminescence, T-cell screen hits (AID 489026).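 Also: cells exposed to compound about 14 hours before the viability readout.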 The format is functional, cell-based.
The nature of assay [6]: cytotoxicity toward DRD oncogenic fibroblasts, dose response, cell-based, non-viral oncogenic, luminescence (AID 1934). In kind it is functional. To be noted: Homo sapiens.
Assay [7] deals with BJ. The assay is described as follows: cytotoxicity toward BJ-TERT fibroblasts, dose response, cell-based, RAS-independent, luminescence (AID 1933). In kind it is functional. To be noted: Homo sapiens.
Assay [8] has as its system BJ. The assay is described as follows: cells. In kind it is functional, cell-based. To be noted: Homo sapiens.
The test system of assay [9] is BJ. Description: cytotoxicity toward BJ-TERT-LT-ST fibroblasts, dose response, cell-based, RAS-independent, luminescence (AID 1935).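 Also: BJ fibroblasts immortalized with TERT plus LT and ST oncogenes.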 In kind it is functional. To be noted: Homo sapiens.
In another assay the test system is INS1. Description: beta cell apoptosis inhibitors, cytokine rescue, dose response, luminescence, retest (AID 449756).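 Also: cell death triggered by IL-1 beta plus TNF-alpha plus IFN-gamma mixture; protective hits raise ATP signal compared with cytokine alone wells.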 In kind it is functional, cell-based. To be noted: Rattus norvegicus.
The next assay has as its target Estrogen receptor beta (Homo sapiens, UniProt Q92731).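 Also: recombinant ER-beta bound to coactivator SRC1 peptide in presence of estradiol agonist; inhibitors block coactivator peptide binding and lower the FRET signal.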
Assay [10] in a line: Luminescence Cell-Based Dose Retest to Confirm Inhibitors of Cancer Stem Cells. [Related pubchem assays (depositor defined):AID2717, AID2721]. The format is functional. To be noted: Homo sapiens.
A short description of assay [11]: Luminescence Cell-Based Dose Confirmation HTS to Identify Activators of 5'UTR Stem-Loop Driven Alpha-Synuclein mRNA Translation in H4 Neuroglioblastoma Cells. [Related pubchem assays: 1829 (Project Summary), 1814 (Primary HTS)]. The format is functional.
Assay [12] is described as follows: microbe, parasite or virus in culture. The format is functional. To be noted: Mycobacterium tuberculosis.
For another assay, the system named is H4. The assay is described as follows: Luminescence Cell-Based Dose Response HTS to Identify Activators of 5'UTR Stem-Loop Driven Prion Protein mRNA Translation in H4 Neuroglioblastoma Cells. [Related pubchem assays: 1829 (Project Summary), 1814 (Primary HTS)]. To be noted: Homo sapiens. In kind it is functional.
Assay [13] in a line: Luminescence Cell-Based Dose Response HTS to Identify Activators of Luciferase Translation or Activity in H4 […] Cells. [Related pubchem assays: 1829 (Project Summary), 1814 (Primary HTS)]. In kind it is functional.
The target in a further assay is T5, Streptokinase A (Streptococcus pyogenes serotype M1, UniProt P10520).
T5 sequence (P10520 whole entry): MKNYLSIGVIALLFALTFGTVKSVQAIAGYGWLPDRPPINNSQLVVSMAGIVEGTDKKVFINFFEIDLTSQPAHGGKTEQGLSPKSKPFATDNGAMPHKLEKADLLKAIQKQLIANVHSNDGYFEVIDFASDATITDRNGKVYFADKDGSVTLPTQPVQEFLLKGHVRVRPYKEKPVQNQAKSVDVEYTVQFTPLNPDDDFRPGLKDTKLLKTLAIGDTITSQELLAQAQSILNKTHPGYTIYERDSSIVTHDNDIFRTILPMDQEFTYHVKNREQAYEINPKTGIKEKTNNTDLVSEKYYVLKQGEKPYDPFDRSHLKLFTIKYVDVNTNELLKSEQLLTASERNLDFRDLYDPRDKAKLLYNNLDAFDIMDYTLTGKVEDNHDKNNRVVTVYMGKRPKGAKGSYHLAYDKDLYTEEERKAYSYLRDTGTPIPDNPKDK
The assay is described as follows: S. pyogenes streptokinase expression inhibitors, potency, dose response, plasminogen activation absorbance, OD405 (AID 1914).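 Also: secreted streptokinase activity via plasminogen activation per viability signal from cell pellet.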 In kind it is functional, Streptococcus pyogenes M1 GAS.

Assay [14] relates to Streptococcus sp. 'group A'. The assay is described as follows: growth inhibition of control SK(-) GAS strain, dose response, counter-screen for streptokinase expression inhibitor project, luminescence, kanamycin, BacTiterGlo, confirmation (AID 1900). The format is functional, organism-based.
The test system of another assay is Streptococcus. The assay is described as follows: Group A Streptococcus viability loss, dose response, counter-screen for streptokinase expression inhibitor project, luminescence, BacTiterGlo (AID 1915).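 Also: potency for reduction of bacterial viability or growth.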 The format is functional, organism-based.

The source made the active and inactive calls. Bounds are passed on as bounds.

Chain of Induced myeloid leukemia cell differentiation protein Mcl-1 (Q07820 whole entry): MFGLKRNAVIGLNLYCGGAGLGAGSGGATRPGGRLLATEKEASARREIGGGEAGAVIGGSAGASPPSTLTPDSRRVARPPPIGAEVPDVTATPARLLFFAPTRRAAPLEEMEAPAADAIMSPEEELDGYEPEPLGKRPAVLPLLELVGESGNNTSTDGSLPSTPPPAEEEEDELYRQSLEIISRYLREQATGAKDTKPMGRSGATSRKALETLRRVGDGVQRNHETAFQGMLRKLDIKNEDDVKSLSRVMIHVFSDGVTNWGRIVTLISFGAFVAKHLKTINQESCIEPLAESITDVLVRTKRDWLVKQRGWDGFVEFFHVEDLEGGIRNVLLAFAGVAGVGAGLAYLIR
Chain of Estrogen receptor beta (Q92731 whole entry): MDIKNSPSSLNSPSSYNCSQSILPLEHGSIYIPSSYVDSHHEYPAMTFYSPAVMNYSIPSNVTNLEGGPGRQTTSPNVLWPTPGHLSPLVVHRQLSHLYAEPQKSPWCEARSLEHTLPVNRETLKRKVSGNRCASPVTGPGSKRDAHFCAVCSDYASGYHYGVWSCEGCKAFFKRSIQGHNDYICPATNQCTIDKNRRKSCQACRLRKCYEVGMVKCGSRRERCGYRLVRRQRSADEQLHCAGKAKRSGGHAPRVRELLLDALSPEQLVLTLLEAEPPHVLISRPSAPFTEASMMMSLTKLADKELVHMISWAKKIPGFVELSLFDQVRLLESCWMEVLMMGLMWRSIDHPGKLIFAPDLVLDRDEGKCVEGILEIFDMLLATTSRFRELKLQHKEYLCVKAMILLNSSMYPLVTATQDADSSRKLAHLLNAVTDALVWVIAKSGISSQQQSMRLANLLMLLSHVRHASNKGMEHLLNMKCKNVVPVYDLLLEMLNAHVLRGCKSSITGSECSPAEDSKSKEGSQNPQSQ
Chain of Cytochrome P450 2C19 (P33261 whole entry): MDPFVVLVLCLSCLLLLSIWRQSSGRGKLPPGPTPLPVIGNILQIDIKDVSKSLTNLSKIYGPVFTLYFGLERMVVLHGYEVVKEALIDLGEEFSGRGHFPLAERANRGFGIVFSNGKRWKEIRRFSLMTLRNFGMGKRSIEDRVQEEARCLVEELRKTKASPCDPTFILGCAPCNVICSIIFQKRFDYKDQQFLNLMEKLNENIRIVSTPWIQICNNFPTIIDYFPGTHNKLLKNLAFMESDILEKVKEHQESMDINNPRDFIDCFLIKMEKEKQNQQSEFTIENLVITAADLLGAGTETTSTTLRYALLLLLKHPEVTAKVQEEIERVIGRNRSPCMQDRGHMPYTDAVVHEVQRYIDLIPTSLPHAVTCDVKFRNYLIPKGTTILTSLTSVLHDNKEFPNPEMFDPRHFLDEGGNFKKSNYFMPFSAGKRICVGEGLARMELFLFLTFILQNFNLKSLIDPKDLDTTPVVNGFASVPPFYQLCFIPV

Regarding `c1ccc(CNC2=NN=C(c3cc4ccccc4o3)CS2)cc1`, the IC50 in [1] was 2.66 µM (not active).
In the case of `CCOC(=O)c1c(C)oc2c1c(/C=N/C1CCS(=O)(=O)C1)c(O)c1ccccc12` (stereo not given), the AC50 at Cytochrome P450 2C19 is 1.78 µM (inconclusive). For the same compound, the values for the IC50 (in assay [2]; on Estrogen receptor) were > 50 µM (not active) and 16 µM (active), respectively.
As to `COc1cc(OC)cc(-c2nnc(NC(=O)CCS(=O)(=O)c3ccc(C)cc3)o2)c1`, the CC50 in [3] is 32.4 µM (active).
On to `Brc1c(C[n+]2ccccc2)nc2ccccn12`, for which the IC50 on Coagulation factor XII was > 50 µM (inactive).
`Cc1cc(C)cc(OCC(=O)NNC(=O)c2ccccn2)c1`: the CC50 in [3] is 11.4 µM (active). In addition, the IC50 in [4] was > 20 µM (inactive).
Turning to `Cc1c(Cl)cccc1Nc1nc(N)nc(CN2CCc3ccccc3C2)n1`, the IC50 at Coagulation factor XII is > 50 µM (inactive).
Still for that read-out and setting: under `CCOc1cc(NC(=O)c2ccc(C)cc2)c(OCC)cc1N=C(S)NCCCN1CCOCC1` stands > 50 µM (inactive).
In the case of `CN(C)CC(=O)N1c2ccccc2CCc2ccc(NC(=O)c3ccc(N)cc3)cc21`, the IC50 on Estrogen receptor is 15.6 µM (active).
`CCc1nnc(NC(=O)C2Cc3ccccc3CN2S(=O)(=O)c2cccs2)s1` (stereo not given): on Estrogen receptor, the IC50 is given as > 50 µM (not active).
With `O=C(C1=C[C@H](c2ccc(Br)cc2)C[C@H](OCc2ccc(CO)cc2)O1)N1CCN(Cc2ccc3c(c2)OCO3)CC1`, the CC50 in [3] is 32 µM (active).
For the compound `Cc1ccc(C)c(NC(=O)CN(C)C(=O)CCN2C(=O)c3ccccc3C2=O)c1`, the IC50 at Coagulation factor XII is > 50 µM (inactive).
Regarding `O=C(c1ccccc1-c1ccccc1)N1CCN(c2ccccn2)CC1`, the IC50 in assay [5] was > 80 µM (inactive). The EC50 in [6] is 11.4 µM (active); with BJ [7], 9.85 µM (active); in the assay on BJ [8], 19.9 µM (active); with BJ [9], 13.9 µM (inconclusive).
Regarding `CCOc1ccc(S(=O)(=O)N(C(=O)c2ccco2)c2cc3sc(=O)oc3c3ccccc23)cc1`, in assay [3], the CC50 was 31.6 µM (active). Moreover, the AC50 in the assay with INS1 is 4.42 µM (active).
For `Cn1cc(C(=O)N/N=C/c2ccc([N+](=O)[O-])cc2)c2ccccc21`, the IC50 in assay [1] is 1.94 µM (active).
Consider `N#CCCS(=O)(=O)c1nnnn1-c1ccccc1`, for which the IC50 at Estrogen receptor beta and at Estrogen receptor was > 50 µM (not active) throughout.
`CSC1=NC(c2ccc(C)cc2)=NC(C(Cl)(Cl)Cl)N1` (stereo not given): the IC50 in assay [5] was > 80 µM (inactive).
Regarding `O=C(c1ccccc1)c1nn(-c2ccc(Cl)cc2)c(=O)cc1C(F)(F)F`, the IC50 in assay [5] was > 80 µM (inactive). Besides, the AC50 in assay [10] is 4.21 µM (active). The EC50 in assay [11] was 0.222 µM (active); in the assay on H4 it was > 120 µM (not active); in assay [13], > 120 µM (not active). Moreover, the CC50 in assay [12] is 15.7 µM (active).
`COC(=O)C(C)NC(=O)C1CCCN1S(=O)(=O)c1cc(C)c(Cl)cc1C` (stereo not given): the IC50 on Coagulation factor XII is > 50 µM (inactive).
Regarding `Cc1cc(C)cc(OCc2nc3cc(Br)c[nH]c-3n2)c1`, the 50% inhibitory concentration (IC50) against Estrogen receptor is given as > 50 µM (not active).
`CCCCNc1c(-c2ccc(SC3CCCCC3)c(OC)c2)nc2ccc(C)cn12`: in assay [10], the AC50 was 3.1 µM (active). For the same compound, the CC50 in [12] was > 40 µM (active).
On to `Cc1ccc(-c2nnc(S)n2/N=C/C=C\c2ccccc2[N+](=O)[O-])cc1`, for which the IC50 on Estrogen receptor was 7.32 µM (active).
Take `CCc1cccc2c(C(=O)COC(=O)/C=C/c3ccc(O)c(OC)c3)c[nH]c12`: the EC50 on Streptokinase A is > 150 µM (not active); in [14], 8.62 µM (active); in the assay with Streptococcus it was 41.1 µM (active). Besides, the CC50 in assay [3] was > 40 µM (active).

Broadly, the IC50 is the concentration at which inhibition is half-maximal. The AC50 is the concentration at which the activity in the assay is half-maximal. Usually EC50 stands for the concentration at which the effect is half-maximal.

These data come from ChEMBL document CHEMBL1201862, “PubChem BioAssay data set” (2004).
